According to publication PMC8849047, “Salicylate metal-binding isosteres as fragments for metalloenzyme inhibition” (Chemical Science, 2022):
Read-outs that look alike come from different tables or passages of the source.

Experiments:
[1] = biological target: T1, Recombinant human glyoxalase I (GLO1) (Homo sapiens, UniProt Q04760); test: GLO1 enzyme inhibition assay (absorbance at 240 nm); assay type: biochemical; conditions: for inhibition at 100 µM: read-out: %inhib GLO1; for IC50: dose-response curves, read-out: IC50 against GLO1
T1 construct: purchased R&D Systems 4959-GL
T1 sequence (Q04760 2-184 limits assumed): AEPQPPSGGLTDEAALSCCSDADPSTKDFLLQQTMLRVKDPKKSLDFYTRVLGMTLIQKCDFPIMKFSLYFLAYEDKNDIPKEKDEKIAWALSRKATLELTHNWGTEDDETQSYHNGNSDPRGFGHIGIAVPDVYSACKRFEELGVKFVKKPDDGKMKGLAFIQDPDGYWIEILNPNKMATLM
Method: To evaluate if the salicylate MBIs could serve as starting points for future FBDD campaigns, the MBI library was screened for inhibitory activity against human glyoxalase I (GLO1) at fragment concentrations of 100 μM (Table 2). […] Recombinant human glyoxalase I (GLO1) was purchased from R&D Systems (catalog #4959-GL). Assays were carried out in 0.1 M sodium phosphate, pH 7.0 buffer, utilizing 96-well clear UV plates (Corning UV Transparent Microplates, catalog #3635). A fresh solution of GSH (100 mM) and methylglyoxal (MG) (100 mM) was prepared in Millipore grade water. […] The substrate mixture was vortexed vigorously for 45 s and then allowed to sit at room temperature for 15 min. The initial well volume was 50 μL containing GLO1 (40 ng) and inhibitor. This protein and inhibitor mixture was incubated for 15–20 min prior to addition of the substrate. […] The enzyme activity was measured utilizing a Biotek Synergy HT or H4 plate reader by measuring absorbance at 240 nm every 1 min for a duration of 8 min. The rate of absorbance increase was compared for samples versus controls containing no inhibitor (set at 100% activity). The absorbance reading for background wells containing DMSO, buffer, and substrate (no enzyme or inhibitor) was subtracted from the experimental wells. […] Dose-response curves were generated, analysed and fitted to obtain IC50 values (see ESI ^†).
5. Single Point screening
Single point screening of salicylate MBI library against GLO1 at 100 µM inhibitor concentration. Chugai 1 (4,6-diphenyl-N-hydroxypyridone) 4 as positive control. […]
6. Dose-response curves against GLO1
The raw data from the GLO1 assay was background corrected and normalized from 0 to 100 with 100 being the largest mean of each dataset. A variable slope log-logistic model was chosen for curve fitting.
The corresponding datapoints are shown as empty bullets and were not included in the curve-fitting. The resulting restricted datasets were fitted according to a literature procedure setting the lower limit of the dose-response curve to zero. This compensates for the loss of information caused by trimming of the dataset. 5,6
Figure S7. Dose-response curve of 11 against GLO1.

[2] = biological target: T2, Human recombinant MMP-3 catalytic domain (Homo sapiens, UniProt P08254); test: MMP-3 enzyme inhibition assay (chromogenic substrate, 412 nm); assay type: biochemical; conditions: standard deviation in parentheses, read-out: %inhib MMP-3
T2 construct: Human recombinant MMP-3 catalytic domain was purchased; purchased ENZO Life Sciences BML-SE109-9090
T2 sequence (P08254 100-272 limits assumed): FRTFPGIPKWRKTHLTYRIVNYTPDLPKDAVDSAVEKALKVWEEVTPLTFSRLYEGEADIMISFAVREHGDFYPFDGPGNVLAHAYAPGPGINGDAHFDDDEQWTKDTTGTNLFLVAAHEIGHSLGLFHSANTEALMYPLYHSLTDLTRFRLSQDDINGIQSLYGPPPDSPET
Method: To probe the selectivity of the salicylate MBIs, the library was screened against matrix metalloproteinase-3 (MMP-3) at fragment concentrations of 100 μM (Table 2).
Human recombinant MMP-3 catalytic domain was purchased from ENZO Life Sciences (catalog # BML-SE109-9090). Assays were carried out in clear Costar 96-well, half-area, flat-bottom assay plates (catalog # 80-2404). Each well contained a total volume of 100 μL including buffer (50 mM MES, 10 mM CaCl2, 0.05% Brij-35, 1 mM DNTB, pH 6.0), MMP-3 (2 U), and the fragment solution. After a 30 min incubation period at 37 °C, the reaction was initiated by the addition of 10 μL of chromogenic MMP-3 substrate (100 μM final concentration, Ac-Pro-Leu-Gly-[2-mercap-to-4-methyl-pentanoyl]-Leu-Gly-OC2H5, ENZO Life Sciences, catalog #BML-P125-0005). Absorbance was monitored at 412 nm using a Bio-Tek ELx 808 colorimetric plate reader, and measurements were recorded every minute for 10 min. The rate of absorbance increase was compared for samples versus negative controls (no inhibitor, arbitrarily set as 100% activity).
5. Single Point screening […]
Figure S5. Single point screening of salicylate MBI library against MMP-3 at 100 µM inhibitor
concentration. NNGH as positive control.

[3] = test system: influenza H1N1 N-terminal PA endonuclease (PAN); test: PAN endonuclease inhibition assay (fluorescent ssDNA-oligo substrate); assay type: biochemical; conditions: 100 μM; standard deviation in parentheses
[4] = pKa by potentiometric titration (Sirius T3); assay type: physicochemical
Method: In addition to gaining an understanding about the metal coordinating properties of the salicylate MBIs by using [(Tp^Ph,Me)Zn(MBI)] model complexes, the physicochemical properties of the MBIs were also studied.
(§1) Physicochemical properties were determined using a Sirius T3 instrument.[23–25] […] The pKa of a compound was determined by analysing each MBI sample in triplicate using potentiometric titrations. Experiments were typically performed over a pH range of 2.0–12.0. Standard deviations were derived from fitting all three replicate experiments. For water insoluble compounds methanol was added and the obtained apparent pKa (psKa) was extrapolated to the aqueous pKa by the Yasuda–Shedlovsky procedure. log P was determined via potentiometric titrations in the presence of varying ratios of octanol and water. The presence of octanol shifts the pKa of ionizable species, and based on the shifts, a log P can be determined. Measurements for log P determination were typically performed over a pH range of 2.0–12.0. Three experiments with varying ratios of water:octanol was performed, allowing for a standard deviation to be determined from the fitting of all measurements. MBI sample sizes were ∼0.5 mg for both pKa and log P measurements.

[5] = log P by potentiometric titration octanol/water (Sirius T3); log D7.4 calculated from pKa and log P; assay type: physicochemical; conditions: for logD: pH 7.4
Method: In addition to gaining an understanding about the metal coordinating properties of the salicylate MBIs by using [(Tp^Ph,Me)Zn(MBI)] model complexes, the physicochemical properties of the MBIs were also studied. The acidity (pKa) and lipophilicity (log P) were measured using potentiometric methods and the lipophilicity at physiological pH (log D7.4) was calculated from these two values (Table 1).[23–25]
as §1

[6] = 100 μM, standard deviation in parentheses
[7] = potentiometric, 0.15 M KCl, triplicate, read-out: pKa (pKa,1)
[8] = calculated from measured pKa and log P, read-out: log D7.4
[9] = potentiometric, octanol/water, read-out: log P

| SMILES | inhibition at 100 µM [2] | %inhib Endo (PAN) [3] | pKa ([4]; pKa) | pKa ([4]; pKa (pKa,1)) | inhibition at 100 µM [1, 6] | logP [5] | logD [5] | other results |
| --- | --- | --- | --- | --- | --- | --- | --- | --- |
| O=c1cc(-c2ccccc2)cc(-c2ccccc2)n1O [1-hydroxy-4,6-diphenylpyridin-2(1H)-one, reference compound] |  |  |  |  |  |  |  | GLO1 inhibition by positive control ([1]; 50 μM): complete inhibition |
| CS(=O)(=O)Nc1ccccc1C(=O)O [Compound 2] | 11% | 1 (9) % | 10.8 | 3.04 | 18% | 1.39 | -2.97 |  |
| O=C(O)c1cccc2oc(=O)[nH]c12 [Compound 3] | 0% | 11 (7) % | 10.3 | 3.65 | 29% | 1.28 | -2.47 |  |
| O=C(O)c1cccc2nc[nH]c12 [Compound 4] | 3% | 0% | 5.49 | 3.04 | 38% | -1.4 | -2.09 | pKa ([4]; pKa (third printed value)): 12.8 |
| O=C(O)c1cccc2nn[nH]c12 [Compound 5] | 0% | 22 (7) % | 9.29 | 3.49 | 20% | 1.38 | -2.37 |  |
| COC(=O)c1ccccc1O [Compound 6] | 0% | 21 (6) % |  | 9.8 | 10% | 2.19 | 2.19 |  |
| CONC(=O)c1ccccc1O [Compound 7] | 0% | 46 (8) % | 12 | 7.23 | 22% | 0.85 | 0.49 |  |
| Oc1ccccc1-c1nnn[nH]1 [Compound 8] | 6% |  | 10.9 | 4.63 | 24% | 1.54 | -0.46 |  |
| Oc1ccccc1C1(O)COC1 [Compound 9] | 0% | 17 (9) % |  | 9.38 | 9% | 0.43 | 0.42 |  |
| Oc1ccccc1-c1ncccn1 [Compound 10] | 0% |  |  |  | 15% |  |  |  |
| Oc1ccc(-c2ccccc2)cc1-c1nc2ccccc2s1 [Compound 11a] |  |  |  |  |  |  |  | IC50 [1]: 5 ± 1.5 µM |
| Cc1cccc(-c2ccc(O)c(-c3nc4ccccc4s3)c2)c1 [Compound 11b] |  |  |  |  |  |  |  | IC50 [1]: 6.8 ± 1.4 µM |
| Oc1ccc(-c2cccc(Cl)c2)cc1-c1nc2ccccc2s1 [Compound 11c] |  |  |  |  |  |  |  | IC50 [1]: 3.3 ± 0.7 µM |
| Oc1ccc(N2CCCCC2)cc1-c1nc2ccccc2s1 [Compound 11d] |  |  |  |  |  |  |  | IC50 [1]: > 20 µM |
| Oc1ccc(N2CCOCC2)cc1-c1nc2ccccc2s1 [Compound 11e] |  |  |  |  |  |  |  | IC50 [1]: > 50 µM |
| Oc1ccc(N2CCCC2)cc1-c1nc2ccccc2s1 [Compound 11f] |  |  |  |  |  |  |  | IC50 [1]: 4.4 ± 1.8 µM |

| SMILES | inhibition at 100 µM [2] | %inhib Endo (PAN) [3] | pKa ([4]; pKa) | pKa ([4]; pKa (pKa,1)) | inhibition at 100 µM [1, 6] | logP [5] | logD [5] | other results |
| --- | --- | --- | --- | --- | --- | --- | --- | --- |
| Oc1ccc(-c2ccoc2)cc1-c1nc2ccccc2s1 [Compound 11g] |  |  |  |  |  |  |  | IC50 [1]: 6.9 ± 2.8 µM |
| COC(=O)c1ccccc1NS(C)(=O)=O [Compound 12] | 12% | 33 (11) % |  |  |  |  |  | pKa [4, 7]: 8.86; inhibition at 100 µM [1]: 18%; logD [5, 8]: 1.49; logP [5, 9]: 1.51 |
| COC(=O)c1cccc2oc(=O)[nH]c12 [Compound 13] | 0% | 46 (7) % |  | 8.78 | 31% | 1.24 | 1.22 |  |
| COC(=O)c1cccc2nc[nH]c12 [Compound 14] | 7% | 37 (5) % | 12.3 | 4.51 | 19% | 1.73 | 1.73 |  |
| COC(=O)c1cccc2nn[nH]c12 [Compound 15] | 0% | 42 (6) % |  | 7.96 | 22% | 1.31 | 1.21 |  |
| CONC(=O)c1ccccc1NS(C)(=O)=O [Compound 16] | 0% | 44 (6) % | 11.3 | 7.15 | 16% | 0.12 | -0.33 |  |
| CONC(=O)c1cccc2oc(=O)[nH]c12 [Compound 17] | 0% | 23 (6) % | 12.5 | 7.58 | 33% | 0.4 | 0.18 |  |
| CONC(=O)c1cccc2nc[nH]c12 [Compound 18] | 0% | 22 (7) % | 8.4 | 4.23 | 20% | 0.05 | 0.01 | pKa ([4]; pKa (third printed value)): > 12 |
| CONC(=O)c1cccc2nn[nH]c12 [Compound 19] | 0% | 31 (7) % | 9.93 | 6.99 | 17% | 0.75 | 0.22 |  |
| CS(=O)(=O)Nc1ccccc1-c1nnn[nH]1 [Compound 20] | 3% | 43 (4) % |  |  |  |  |  | pKa ([4]; potentiometric, 0.15 M KCl, triplicate, read-out: pKa): 9.52; pKa [4, 7]: 3.62; inhibition at 100 µM [1]: 10%; logD [5, 8]: -0.43; logP [5, 9]: 1.18 |
| O=c1[nH]c2c(-c3nnn[nH]3)cccc2o1 [Compound 21] | 0% | 0% |  |  | 39% |  |  |  |
| c1cc(-c2nnn[nH]2)c2[nH]cnc2c1 [Compound 22] | 74% |  |  |  | 50% |  |  |  |
| OC1(c2cccc3nc[nH]c23)COC1 [Compound 23] | 4% | 22 (8) % |  |  | 10% |  |  |  |
| OC1(c2cccc3nn[nH]c23)COC1 [Compound 24] | 0% | 32 (8) % |  |  | 19% |  |  |  |
| CS(=O)(=O)Nc1ccccc1-c1ncccn1 [Compound 25] | 0% | 21 (8) % |  |  | 19% |  |  |  |
